{"source": "patent US5225411A", "about": "“Disubstituted polymethyleneimines” (priority 1990, dated 1993)", "key": {"[1]": {"test_system": "murine leukaemia P388/ADR", "text": "D) In Vivo Reversion of the Acquired Resistance to Medicaments\n10^6 cells are implanted by the intraperitoneal route into female B6 D2 F1 mice on day 0 and treatment commences the following day in accordance with the administration schemes indicated.\nThe parameter measured is the survival time, allowing the calculation of T/C: [formula]\nThe variation in weight is calculaed; it provides information on the toxicity of the treatment. The control groups comprise from 15 to 27 animals and the treated groups from 5 to 10 animals.\nSix independent experiments were carried out. The assays were performed over 4 days in accordance with the scheme D1-4 the tumour cells being implanted on DO and the reversing agent and the cytotoxic agnet being administered on D1, D2, D3, and D4."}, "[2]": {"test_system": "murine leukaemia P 388/ADR 10", "test": "Evaluation of the increase in cytotoxicity of adriamycin on the line P 388/ADR-10 in vitro (reversion factor)", "type": "cell-based", "conditions": "P 388/ADR 10, resistance induced by adriamycin"}, "[3]": {"test_system": "murine leukaemia P 388/ADR 10", "test": "Evaluation of the increase in cytotoxicity of adriamycin on the line P 388/ADR-10 in vitro (reversion factor)", "type": "cell-based", "conditions": "for Reversion Factor (RF): adriamycin, P 388/ADR-10, 48 h, TOX = toxic", "experimental": "In this study, the cytotoxicity of adriamycin was measured in the absence and in the presence of the reversing compound.\nThe compounds tested for their capacity to reverse MDR are added at the same time as the cytotoxic agent. The cells are then incubated for 48 hours."}, "[4]": {"test_system": "Chinese Hamster Pulmonary Line DC-3F/AD", "test": "Increase in the cytotoxicity of actinomycin D on the Chinese hamster pulmonary line DC-3F/AD;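 further: DC-3F/AD is an extremely resistant cell line whose resistance factor exceeds 10,000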", "type": "cell-based", "conditions": "4 days", "text": "The cytotoxic agent used was actinomycin D.\nLine DC-3F/AD is an extremely resistant line. Its resistance factor is higher than 10,000."}, "[5]": {"test_system": "line DC-3F/AD", "test": "Flow cytometry, increase in fluorescence of ADR on the line DC-3F/AD", "type": "cell-based, Chinese Hamster", "conditions": "ADR 50 μM, 5 h", "experimental": "(§1) By measuring that fluorescence it is possible to obtain a relative measurement of the intracellular concentration of ADR.\n(§2) […] After 5 hours' incubation, the intracellular uptake of adriamycin was evaluated by FCM.\n(§3) The analysis of each of the samples was carried out on a total of 10,000 cells at a speed of 1000 cells/sec.\n(§4) The results were presented in the form of linear histograms of the intracellular ADR fluorescence.\n(§5) Expression of the Results\n(§6) For each of the histograms, the channel mean fluorescence was determined by the apparatus information system. For all experiments:\n(§7) A negative control (cells without ADR) fixed the autofluorescence threshold.\n(§8) A positive control (cells with ADR) determined the MEAN value=MN1.\n(§9) The \"test\" tubes (cells with ADR and with compound) were used to determine, for each of the compounds and at each of the concentrations, the MEAN values=MN2.\n(§10) The results are expressed in the form of variations from the mean fluorescence obtained for each of the \"test\" tubes (MN2) in relation to the mean fluorescence obtained with the […] (MNl) : VAR-MEAN=MN2 -MN1. The parameter expressed is thus the increase in the fluorescence of adriamycin in the presence of the tested compounds."}, "[6]": {"test_system": "line P 388/ADR 10", "test": "Flow cytometry, increase in fluorescence of ADR on the line P 388/ADR 10", "type": "cell-based, murine", "conditions": "ADR 50 μM, 5 h", "experimental": "as §1, §2, §3, §4, §5, §6, §7, §8, §9, §10"}, "[7]": {"conditions": "in vivo; cited from earlier work"}, "[8]": {"conditions": "ADR 2 mg/kg alone, i.p., D1-4, n=2"}, "[9]": {"conditions": "ADR 4 mg/kg alone, i.p., D1-4, n=6"}, "[10]": {"conditions": "Example 1 50 mg/kg + ADR 2 mg/kg, i.p., D1-4, n=2"}, "[11]": {"conditions": "Example 1 50 mg/kg + ADR 4 mg/kg, i.p., D1-4, n=2"}, "[12]": {"conditions": "Example 1 50 mg/kg alone, i.p., D1-4, n=2"}, "[13]": {"conditions": "Example 1 100 mg/kg + ADR 2 mg/kg, i.p., D1-4, n=2"}, "[14]": {"conditions": "Example 1 100 mg/kg + ADR 4 mg/kg, i.p., D1-4, n=6"}, "[15]": {"conditions": "Example 1 100 mg/kg alone, i.p., D1-4, n=6"}, "[16]": {"conditions": "Example 1 200 mg/kg + ADR 2 mg/kg, i.p., D1-4, n=4"}, "[17]": {"conditions": "Example 1 200 mg/kg alone, i.p., D1-4, n=4"}}, "note": "“And” between values parts separate entries of the source, which are not always exact repeats. Equal values may be shown once. Read-outs that look alike come from different tables or passages of the source.", "data": [{"smiles": "COc1cccc2c1C(=O)c1c(O)c3c(c(O)c1C2=O)C[C@@](O)(C(=O)CO)C[C@@H]3O[C@H]1C[C@H](N)[C@H](O)[C@H](C)O1", "note": "[ADR, adriamycin, reference compound]", "values": [{"measurement": "T/C, extreme values", "setting": "[1]; [8]", "value": "116.7-120%"}, {"measurement": "T/C, mean ± s.e.m.", "setting": "[1]; [8]", "value": 118.3, "unit": "%"}, {"measurement": "T/C, median", "setting": "[1]; [8]", "value": 118.3, "unit": "%"}, {"measurement": "T/C, extreme values", "setting": "[1]; [9]", "value": "105-130%"}, {"measurement": "T/C, mean ± s.e.m.", "setting": "[1]; [9]", "value": "115.1 ± 3.9", "unit": "%"}, {"measurement": "T/C, median", "setting": "[1]; [9]", "value": 112.5, "unit": "%"}, {"measurement": "antitumour activity", "setting": "[1]; ADR alone, P388/ADR", "value": "not exhibiting any antitumour activity"}, {"measurement": "T/C", "setting": "[1]; ADR alone, i.p.", "value": "< 120", "unit": "%"}, {"measurement": "factor of resistance in relation to the sensitive line", "setting": "[2]", "value": 260}]}, {"smiles": "C=CCNc1nc(NCC=C)nc(N2CCC(NCC(c3ccc(F)cc3)c3ccc(F)cc3)CC2)n1", "note": "[Example 1, 1-[4,6-bis(allylamino)-2-s-triazinyl]-4-[2,2-bis(p-fluorophenyl)ethylamino]piperidine]", "values": [{"measurement": "Reversion Factor (RF)", "setting": "[3]; compound 2.5 μM", "value": 110.8}, {"measurement": "Reversion Factor (RF)", "setting": "[3]; compound 5 μM", "value": 244.4}, {"measurement": "Reversion Factor (RF)", "setting": "[3]; compound 10 μM", "value": 170.7}, {"measurement": "T/C, extreme values", "setting": "[1]; [10]", "value": "120-141.7%"}, {"measurement": "T/C, mean ± s.e.m.", "setting": "[1]; [10]", "value": 130.9, "unit": "%"}, {"measurement": "T/C, median", "setting": "[1]; [10]", "value": 130.9, "unit": "%"}, {"measurement": "T/C, extreme values", "setting": "[1]; [11]", "value": "116.7-140%"}, {"measurement": "T/C, mean ± s.e.m.", "setting": "[1]; [11]", "value": 128.4, "unit": "%"}, {"measurement": "T/C, median", "setting": "[1]; [11]", "value": 128.4, "unit": "%"}, {"measurement": "T/C, extreme values", "setting": "[1]; [12]", "value": "90-108.3%"}, {"measurement": "T/C, mean ± s.e.m.", "setting": "[1]; [12]", "value": 99.2, "unit": "%"}, {"measurement": "T/C, median", "setting": "[1]; [12]", "value": 99.2, "unit": "%"}, {"measurement": "T/C, extreme values", "setting": "[1]; [13]", "value": "116.7-140%"}, {"measurement": "T/C, mean ± s.e.m.", "setting": "[1]; [13]", "value": 128.4, "unit": "%"}, {"measurement": "T/C, median", "setting": "[1]; [13]", "value": 128.4, "unit": "%"}, {"measurement": "T/C, extreme values", "setting": "[1]; [14]", "value": "120-150%"}, {"measurement": "T/C, mean ± s.e.m.", "setting": "[1]; [14]", "value": "134.2 ± 4.4", "unit": "%"}, {"measurement": "T/C, median", "setting": "[1]; [14]", "value": 134.2, "unit": "%"}, {"measurement": "T/C, extreme values", "setting": "[1]; [15]", "value": "85-100%"}, {"measurement": "T/C, mean ± s.e.m.", "setting": "[1]; [15]", "value": "91.7 ± 2.8", "unit": "%"}, {"measurement": "T/C, median", "setting": "[1]; [15]", "value": 90, "unit": "%"}, {"measurement": "increase in activity as a result of the compound of Example 1", "setting": "[1]; Example 1 200 mg/kg + ADR 2 mg/kg, i.p.", "value": 30.6, "unit": "%"}, {"measurement": "T/C, extreme values", "setting": "[1]; [16]", "value": "140-155.6%"}, {"measurement": "T/C, mean ± s.e.m.", "setting": "[1]; [16]", "value": "148.9% and 148.9 ± 3.2%"}, {"measurement": "T/C, median", "setting": "[1]; [16]", "value": 150, "unit": "%"}, {"measurement": "activity", "setting": "[1]; Example 1 200 mg/kg + ADR 2 mg/kg, T/C ≥ 135% good activity", "value": "good activity"}, {"measurement": "T/C, extreme values", "setting": "[1]; [17]", "value": "80-88.9%"}, {"measurement": "T/C, mean ± s.e.m.", "setting": "[1]; [17]", "value": "83.5 ± 2.2", "unit": "%"}, {"measurement": "T/C, median", "setting": "[1]; [17]", "value": 82.5, "unit": "%"}, {"measurement": "toxicity", "setting": "[1]; Example 1 alone, 200 mg/kg, i.p., T/C ≤ 85% toxic", "value": "only moderately toxic"}, {"measurement": "antitumour activity", "setting": "[1]; Example 1 alone, 50 to 200 mg/kg, i.p.", "value": "does not possess any antitumour activity"}, {"measurement": "activity", "setting": "[1]; Example 1 at 50 and 100 mg/kg (Table V: with ADR), T/C ≥ 120% moderate activity", "value": "modest activity"}, {"measurement": "Reversion Factor (RF)", "setting": "[4]; compound 2.5 μM", "value": 171}, {"measurement": "Reversion Factor (RF)", "setting": "[4]; compound 5 μM", "value": 905}, {"measurement": "Reversion Factor (RF)", "setting": "[4]; compound 10 μM", "value": 2575}, {"measurement": "Reversion Factor (RF)", "setting": "[4]; compound 20 μM", "value": "TOX"}, {"measurement": "Increase in fluorescence of ADR (VAR-MEAN = MN2 - MN1)", "setting": "[5]; compound 2 μM", "value": 18.27}, {"measurement": "Increase in fluorescence of ADR (VAR-MEAN = MN2 - MN1)", "setting": "[5]; compound 5 μM", "value": 26.13}, {"measurement": "Increase in fluorescence of ADR (VAR-MEAN = MN2 - MN1)", "setting": "[5]; compound 10 μM", "value": 35.57}, {"measurement": "Increase in fluorescence of ADR (VAR-MEAN = MN2 - MN1)", "setting": "[5]; compound 20 μM", "value": 43.63}, {"measurement": "Increase in fluorescence of ADR (VAR-MEAN = MN2 - MN1)", "setting": "[6]; compound 2 μM", "value": 53.1}, {"measurement": "Increase in fluorescence of ADR (VAR-MEAN = MN2 - MN1)", "setting": "[6]; compound 5 μM", "value": 74.1}, {"measurement": "Increase in fluorescence of ADR (VAR-MEAN = MN2 - MN1)", "setting": "[6]; compound 10 μM", "value": 85.49}, {"measurement": "Increase in fluorescence of ADR (VAR-MEAN = MN2 - MN1)", "setting": "[6]; compound 20 μM", "value": 78.5}]}, {"smiles": "COC(=O)[C@H]1[C@H]2C[C@@H]3c4[nH]c5cc(OC)ccc5c4CCN3C[C@H]2C[C@@H](OC(=O)c2cc(OC)c(OC)c(OC)c2)[C@@H]1OC", "note": "[RESERPINE]", "values": [{"measurement": "activity in reversing resistance in vitro", "setting": "[3]; P 388/ADR-10, adriamycin", "value": "very good activity in vitro"}, {"measurement": "Reversion Factor (RF)", "setting": "[3]; compound 5 μM", "value": 215.5}, {"measurement": "Reversion Factor (RF)", "setting": "[3]; compound 10 μM", "value": 189}, {"measurement": "Reversion Factor (RF)", "setting": "[4]; compound 2.5 μM", "value": 258}, {"measurement": "Reversion Factor (RF)", "setting": "[4]; compound 5 μM", "value": 1085}, {"measurement": "Reversion Factor (RF)", "setting": "[4]; compound 10 μM", "value": 1649}, {"measurement": "Reversion Factor (RF)", "setting": "[4]; compound 20 μM", "value": 2024}, {"measurement": "Increase in fluorescence of ADR (VAR-MEAN = MN2 - MN1)", "setting": "[5]; compound 2 μM", "value": 26.18}, {"measurement": "Increase in fluorescence of ADR (VAR-MEAN = MN2 - MN1)", "setting": "[5]; compound 5 μM", "value": 29.43}, {"measurement": "Increase in fluorescence of ADR (VAR-MEAN = MN2 - MN1)", "setting": "[5]; compound 10 μM", "value": 31.73}, {"measurement": "Increase in fluorescence of ADR (VAR-MEAN = MN2 - MN1)", "setting": "[5]; compound 20 μM", "value": 29.95}, {"measurement": "toxicity", "setting": "[7]", "value": "high degree of toxicity"}, {"measurement": "Increase in fluorescence of ADR (VAR-MEAN = MN2 - MN1)", "setting": "[6]; compound 2 μM", "value": 73.46}, {"measurement": "Increase in fluorescence of ADR (VAR-MEAN = MN2 - MN1)", "setting": "[6]; compound 5 μM", "value": 80.48}, {"measurement": "Increase in fluorescence of ADR (VAR-MEAN = MN2 - MN1)", "setting": "[6]; compound 10 μM", "value": 91.90}, {"measurement": "Increase in fluorescence of ADR (VAR-MEAN = MN2 - MN1)", "setting": "[6]; compound 20 μM", "value": 85.39}]}]}
